26 molecules from patent US10307413B2, “Tetrahydro- and dihydro-isoquinoline PRMT5 inhibitors and uses thereof” (Epizyme, Inc., priority 2013, dated 2019) can be followed below.

One may read the pIC50 as the negative decadic logarithm of the IC50, by convention in mol/L.

pEC50, pIC50: −log10 of the molar value. Where two headings read alike, the source gives them in different places.

For test [1], the target named is PRMT5/MEP50 (Homo sapiens (Human), UniProt O14744). The experiment in a line: PRMT5 Biochemical Assay (PRMT5/MEP50 enzyme assay on peptide substrate, 3H-SAM Flashplate). The settings on record: PRMT5 biochemical assay. The method in brief:
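Radiometric methylation of a biotin-tagged H4(1-15) peptide by human PRMT5/MEP50 from baculovirus/Sf9, with ³H-SAM incorporation read on streptavidin Flashplates. Buffer: Bicine pH 7.6, TCEP, BSG, Tween20; compound preincubated 30 min at 25 °C; stopped with 600 µM final unlabeled SAM. DMSO and SAH controls; IC50 from fitted % inhibition.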

Test [2] has as its system symmetric di-methyl arginine in Z-138 cells. The experiment in a line: Z-138 Methylation Assay (In Cell Western for symmetric di-methyl arginine and DNA content). It counts as cell-based. The settings on record: Homo sapiens, In Cell Western methylation, read-out: ICW EC50. The method in brief: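 Z-138 cells (50,000 cells/mL) treated with compound 96 h at 37 °C, then fixed and stained for symmetric di-methyl arginine (800 nm) with DRAQ5 DNA counterstain (700 nm) on Licor Odyssey.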

The subject of test [3] is Z-138 cell line. Kind of test: Z-138 Proliferation Assay (Cell Titer Glo, 5 days). It counts as cell-based. Particulars: Homo sapiens, read-out: Proliferation EC50. The method in brief:
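Z-138 cells exposed 5 days at 37 °C, 5% CO2 to nine-point 3-fold dilutions (final top 20 μM, 0.2% DMSO), in triplicate. Viability read as ATP by CellTiter-Glo luminescence; IC50 from 4-parameter fit of normalized dose-response curves.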
Background: Cellular ATP, detected with luciferase, serves as a proxy for viable cell number.

[4] abbreviates: 120 h, Z-138 cells, 5 days, Cell Titer Glo.

Sequence of PRMT5/MEP50 (O14744 other isoform, or with tags, fused parts or gaps): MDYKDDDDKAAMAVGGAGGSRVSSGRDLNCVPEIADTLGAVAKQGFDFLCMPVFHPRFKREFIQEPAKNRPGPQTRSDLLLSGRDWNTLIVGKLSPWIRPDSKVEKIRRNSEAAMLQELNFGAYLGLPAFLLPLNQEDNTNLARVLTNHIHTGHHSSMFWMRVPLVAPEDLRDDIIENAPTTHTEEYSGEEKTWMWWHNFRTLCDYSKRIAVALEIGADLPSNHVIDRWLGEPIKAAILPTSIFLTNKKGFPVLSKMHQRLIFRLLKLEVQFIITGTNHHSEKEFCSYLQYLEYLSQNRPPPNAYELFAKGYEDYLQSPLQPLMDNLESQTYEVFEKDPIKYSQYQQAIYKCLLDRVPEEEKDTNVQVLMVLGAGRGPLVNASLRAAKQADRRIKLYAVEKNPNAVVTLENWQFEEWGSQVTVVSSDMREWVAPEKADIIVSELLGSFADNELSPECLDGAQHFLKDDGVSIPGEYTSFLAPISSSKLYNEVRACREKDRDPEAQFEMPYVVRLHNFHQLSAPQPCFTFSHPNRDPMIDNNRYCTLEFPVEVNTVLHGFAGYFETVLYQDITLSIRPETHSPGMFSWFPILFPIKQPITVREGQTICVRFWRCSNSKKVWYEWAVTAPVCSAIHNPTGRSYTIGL
Sequence of PRMT5/MEP50 (Q9BQA1 other isoform, or with tags, fused parts or gaps partner): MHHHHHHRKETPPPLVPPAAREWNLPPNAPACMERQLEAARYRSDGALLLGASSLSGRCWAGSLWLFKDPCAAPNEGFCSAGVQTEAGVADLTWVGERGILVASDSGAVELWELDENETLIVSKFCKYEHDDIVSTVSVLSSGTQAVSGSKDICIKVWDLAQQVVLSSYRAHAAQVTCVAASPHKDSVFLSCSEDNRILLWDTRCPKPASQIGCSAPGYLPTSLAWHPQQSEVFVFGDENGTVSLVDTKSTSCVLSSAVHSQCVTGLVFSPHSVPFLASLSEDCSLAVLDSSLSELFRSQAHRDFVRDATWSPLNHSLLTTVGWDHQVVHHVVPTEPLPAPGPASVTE

For the molecule `CC(=O)N1CC(Nc2cc(C(=O)NC[C@H](O)CN3CCc4ccc(C)cc4C3)ncn2)C1` [Compound 667], the pIC50 in test [1] is 6.00 to 7.00. Besides, the results for the pEC50 in test [2] and in test [3] (setting [4]) were above 7.00 and 5.00 to 6.00, respectively.

`CC(=O)N1CCC(Nc2cc(C(=O)NC[C@H](O)CN3CCc4ccc(C)cc4C3)ncn2)CC1` [Compound 668]: the pIC50 in test [1] was above 7.00. Moreover, the pEC50 was above 7.00 in test [2] and 5.00 to 6.00 in test [3] (setting [4]).

For `CC(=O)N1CCC(Nc2cc(C(=O)NC[C@H](O)CN3CCc4ccc(C)cc4C3)ccn2)CC1` [Compound 669], the pIC50 in test [1] is above 7.00. Moreover, the values for the pEC50 in test [2] and in test [3] (setting [4]) were above 7.00 and 6.00 to 7.00, respectively.

`CC(=O)N1CCC(Nc2cc(C(=O)NC[C@H](O)CN3CCc4c(C)cccc4C3)ccn2)CC1` [Compound 670]: in test [1], the pIC50 is above 7.00. Further, the pEC50 in test [2] was above 7.00; in test [3] (setting [4]) it was 6.00 to 7.00.

Consider `CC(=O)N(C)[C@H]1CC[C@H](Nc2cc(C(=O)NC[C@H](O)CN3CCc4ccccc4C3)ncn2)CC1` [Compound 671], for which, in test [1], the pIC50 is above 7.00. In addition, the pEC50 in test [2] and in test [3] (setting [4]) was above 7.00 throughout.

For `COCCN(C)c1cc(NC2CCN(C(C)=O)CC2)cc(C(=O)NC[C@H](O)CN2CCc3ccccc3C2)n1` [Compound 672], the pIC50 in test [1] was above 7.00. Moreover, the pEC50 in test [2] and in test [3] (setting [4]) was above 7.00 throughout.

Take `Cc1cccc2c1CN(C[C@@H](O)CNC(=O)c1cc(NC3COC3)ncn1)CC2` [Compound 673]: the pIC50 in test [1] was above 7.00. Moreover, the pEC50 in test [2] was above 7.00; in test [3] (setting [4]), 5.00 to 6.00.

With `CC(=O)N1CC(Nc2cc(C(=O)NC[C@H](O)CN3CCc4cc(C)ccc4C3)ncn2)C1` [Compound 674], in test [1], the pIC50 is above 7.00. In addition, the pEC50 was above 7.00 in test [2] and 5.00 to 6.00 in test [3] (setting [4]).

`CC(=O)N1CCC(Nc2cc(C(=O)NC[C@H](O)CN3CCc4cc(C)ccc4C3)ncn2)CC1` [Compound 675]: in test [1], the pIC50 is above 7.00. In addition, the pEC50 in test [2] was above 7.00; in test [3] (setting [4]) it was 6.00 to 7.00.

With `CC(=O)N1CC(Nc2cc(C(=O)NC[C@H](O)CN3CCc4c(C)cccc4C3)ncn2)C1` [Compound 676], the pIC50 in test [1] was above 7.00. For the same molecule, the pEC50 in test [2] was above 7.00; in test [3] (setting [4]), 5.00 to 6.00.

For the molecule `CC(=O)N1CCC(Nc2cc(C(=O)NC[C@H](O)CN3CCc4c(C)cccc4C3)ncn2)CC1` [Compound 677], the pIC50 in test [1] was above 7.00. Further, the figures for the pEC50 in test [2] and in test [3] (setting [4]) were above 7.00 and 5.00 to 6.00, respectively.

In the case of `CC(=O)N1CCC(Nc2cc(C(=O)NC[C@H](O)CN3CCc4ccccc4C3)nc(N3CCOCC3)c2)CC1` [Compound 678], the pIC50 in test [1] is above 7.00. Also, the pEC50 was above 7.00 in test [2] and 6.00 to 7.00 in test [3] (setting [4]).

As to `CC(=O)N1CCC(Nc2cc(C(=O)NC[C@H](O)CN3CCc4ccccc4C3)nc(N3CCN(C(C)=O)CC3)c2)CC1` [Compound 679], the pIC50 in test [1] was above 7.00. Besides, the results for the pEC50 in test [2] and in test [3] (setting [4]) were above 7.00 and 6.00 to 7.00, respectively.

Consider `Cc1ccc2c(c1)CCN(C[C@@H](O)CNC(=O)c1cc(NC3COC3)ncn1)C2` [Compound 681], for which the pIC50 in test [1] is 6.00 to 7.00. Moreover, the pEC50 was 6.00 to 7.00 in test [2] and below 5.30 in test [3] (setting [4]).

Consider `CC(=O)N1CCC(Nc2cc(C(=O)NC[C@H](O)CN3CCc4cc(C)ccc4C3)ccn2)CC1` [Compound 682], for which the pIC50 in test [1] is above 7.00. Moreover, the pEC50 in test [2] is above 7.00; in test [3] (setting [4]) it was 6.00 to 7.00.

On to `Cc1cccc2c1CCN(C[C@@H](O)CNC(=O)c1cc(NC3COC3)ncn1)C2` [Compound 683], for which, in test [1], the pIC50 is 6.00 to 7.00. In addition, the values for the pEC50 in test [2] and in test [3] (setting [4]) were 6.00 to 7.00 and below 5.30, respectively.

Turning to `CC(=O)N1CCC(Nc2cc(C(=O)NC[C@H](O)CN3CCc4ccccc4C3)nc(N3CCN(C)CC3)c2)CC1` [Compound 684], in test [1], the pIC50 is above 7.00. For the same molecule, the values for the pEC50 in test [2] and in test [3] (setting [4]) were above 7.00 and 6.00 to 7.00, respectively.

As for `CC(=O)N1CCC(Nc2cc(C(=O)NC[C@H](O)CN3CCc4ccccc4C3)nc(N(C)C)c2)CC1` [Compound 685], the pIC50 in test [1] was above 7.00. In addition, the pEC50 was above 7.00 in test [2] and 6.00 to 7.00 in test [3] (setting [4]).

Consider `O=C(NC[C@H](O)CN1CCc2ccccc2C1)c1cnnc(NC2CCNC2)c1` (stereo partly drawn) [Compound 686], for which the pIC50 in test [1] was above 7.00. Also, the pEC50 in test [2] is below 6.00; in test [3] (setting [4]), below 5.30.

As for `CN1CCC(Nc2cc(C(=O)NC[C@H](O)CN3CCc4ccccc4C3)cnn2)C1` (stereo partly drawn) [Compound 689], in test [1], the pIC50 is above 7.00. The pEC50 in test [2] was 6.00 to 7.00; in test [3] (setting [4]) it was below 5.30.

Turning to `COC(CNC(=O)c1cc(NC2CN(C(C)=O)C2)ncn1)CN1CCc2ccccc2C1` (stereo not drawn) [Compound 690], the pIC50 in test [1] was 6.00 to 7.00. Besides, the pEC50 was 6.00 to 7.00 in test [2] and below 5.30 in test [3] (setting [4]).

Regarding `COC(CNC(=O)c1ccnc(NC2CCN(C(C)=O)CC2)c1)CN1CCc2ccccc2C1` (stereo not drawn) [Compound 691], the pIC50 in test [1] is above 7.00. For the same molecule, the pEC50 was above 7.00 in test [2] and 5.00 to 6.00 in test [3] (setting [4]).

As to `CC(=O)N1CCC(Nc2cc(C(=O)NCC(O)C(C)N3CCc4ccccc4C3)ccn2)CC1` (stereo not drawn) [Compound 692], the pIC50 in test [1] was 6.00 to 7.00. Also, the pEC50 in test [2] was 6.00 to 7.00; in test [3] (setting [4]) it was below 5.30.

Regarding `O=C(NC[C@H](O)CN1CCc2ccccc2C1)c1cnnc(NC2CCOCC2)c1` [Compound 693], the pIC50 in test [1] is above 7.00. The pEC50 in test [2] was above 7.00; in test [3] (setting [4]) it was 6.00 to 7.00.

`CC(=O)N1CCC(Nc2cc(C(=O)NC[C@H](O)CN3CCc4ccccc4C3C)ccn2)CC1` (stereo partly drawn) [Compound 694]: the pIC50 in test [1] was above 7.00. Besides, the results for the pEC50 in test [2] and in test [3] (setting [4]) were above 7.00 and 6.00 to 7.00, respectively.

Turning to `CC(=O)N1CCC(Nc2cc(C(=O)NCC(F)CN3CCc4ccccc4C3)ccn2)CC1` (stereo not drawn) [Compound 698], the pIC50 in test [1] is above 7.00. Besides, the pEC50 is above 7.00 in test [2] and 5.00 to 6.00 in test [3] (Z-138, 120 h).
